Test results: ChEMBL document CHEMBL5143529, “Design, synthesis, and biological evaluation of novel (4-(1,2,4-oxadiazol-5-yl)phenyl)-2-aminoacetamide derivatives as multifunctional agents for the treatment of Alzheimer's disease” (Eur J Med Chem, 2022)
Each block holds one molecule with its values, some of them ahead of it.

Legend:
Acetylcholinesterase = Acetylcholinesterase (Electrophorus electricus, UniProt O42275); experiment: Inhibition of electric eel AChE using acetylthiocholine iodide as substrate preincubated for 20 mins followed by substrate addition and measured after 5 mins by DTNB-reagent based Ellman's method
Chain of Acetylcholinesterase (O42275 whole entry): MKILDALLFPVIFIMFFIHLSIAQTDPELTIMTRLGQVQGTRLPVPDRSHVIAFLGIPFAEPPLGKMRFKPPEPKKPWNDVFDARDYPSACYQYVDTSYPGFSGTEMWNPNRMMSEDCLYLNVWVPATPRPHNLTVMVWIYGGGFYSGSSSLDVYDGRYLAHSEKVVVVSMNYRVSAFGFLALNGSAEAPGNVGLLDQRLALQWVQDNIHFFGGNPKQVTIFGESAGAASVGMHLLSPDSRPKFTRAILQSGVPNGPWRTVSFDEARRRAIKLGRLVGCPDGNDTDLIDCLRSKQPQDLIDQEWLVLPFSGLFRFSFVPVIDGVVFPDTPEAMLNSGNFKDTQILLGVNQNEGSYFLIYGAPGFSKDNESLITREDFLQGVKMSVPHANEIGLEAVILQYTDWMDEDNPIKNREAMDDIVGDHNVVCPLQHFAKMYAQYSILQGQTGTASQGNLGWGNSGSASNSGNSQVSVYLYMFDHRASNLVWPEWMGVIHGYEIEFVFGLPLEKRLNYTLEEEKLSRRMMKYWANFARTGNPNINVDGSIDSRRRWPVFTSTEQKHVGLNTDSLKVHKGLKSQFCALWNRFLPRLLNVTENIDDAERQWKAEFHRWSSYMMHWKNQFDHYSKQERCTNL

[1] = Cytotoxicity against rat PC-12 cells assessed as cell viability at 25 uM incubated for 24 hrs by MTT assay relative to control; type: toxicity, cell-based; details: read-out: Activity
cells = details: Mus musculus, BV-2
Description: Inhibition of NO production in LPS-induced mouse BV-2 cells pretreated for 1 hr followed by LPS stimulation and measured after 24 hrs by ELISA

Cholinesterase = Cholinesterase (Equus caballus, UniProt P81908)
Chain of Cholinesterase (P81908 whole entry): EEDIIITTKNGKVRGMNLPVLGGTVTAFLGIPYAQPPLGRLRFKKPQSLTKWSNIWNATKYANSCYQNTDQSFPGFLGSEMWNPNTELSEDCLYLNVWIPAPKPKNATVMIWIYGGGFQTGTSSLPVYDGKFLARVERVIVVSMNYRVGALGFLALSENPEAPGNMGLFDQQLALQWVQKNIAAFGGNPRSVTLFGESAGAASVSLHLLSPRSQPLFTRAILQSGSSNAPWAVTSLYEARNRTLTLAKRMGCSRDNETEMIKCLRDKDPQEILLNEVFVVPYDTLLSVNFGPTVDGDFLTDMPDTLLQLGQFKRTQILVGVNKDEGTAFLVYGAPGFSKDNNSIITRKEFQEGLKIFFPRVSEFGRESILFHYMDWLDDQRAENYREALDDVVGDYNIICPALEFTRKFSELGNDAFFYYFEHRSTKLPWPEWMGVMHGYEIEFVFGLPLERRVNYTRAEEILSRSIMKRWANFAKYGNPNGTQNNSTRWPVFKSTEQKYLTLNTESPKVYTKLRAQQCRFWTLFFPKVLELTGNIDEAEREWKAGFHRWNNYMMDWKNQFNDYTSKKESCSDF
Description: Inhibition of equine serum BuChE using butyrylthiocholine iodide as substrate preincubated for 20 mins followed by substrate addition and measured after 5 mins by DTNB-reagent based Ellman's method

PC-12 [2] = experiment: Neuroprotective activity against H202-induced cell death in rat PC-12 cells assessed as cell viability at 5 uM pretreated for 3 hrs followed by H2O2 stimulation and measured after 24 hrs by MTT assay relative to control; type: functional; details: time 27 hrs, read-out: Activity
[3] = Cytotoxicity against rat PC-12 cells assessed as cell viability at 50 uM incubated for 24 hrs by MTT assay relative to control; type: toxicity, cell-based; details: read-out: Activity
PC-12 [4] = experiment: Neuroprotective activity against H202-induced cell death in rat PC-12 cells assessed as cell viability at 20 uM pretreated for 3 hrs followed by H2O2 stimulation and measured after 24 hrs by MTT assay relative to control; type: functional; details: time 27 hrs, read-out: Activity
[5] = Potency index, ratio of resveratrol IC50 to test compound IC50 for inhibition of NO production in LPS-induced mouse BV-2 cells pretreated for 1 hr followed by LPS stimulation and measured after 24 hrs by ELISA; type: functional; details: time 25 hrs

Structure (SMILES): O=C(CNCc1ccccc1)Nc1ccc(-c2nc(-c3ccnc(Nc4ccc(OC(F)(F)F)cc4)c3)no2)cc1
IC50 (Acetylcholinesterase): > 50 µM
viability at 24 h, 25 µM [1]: 99.7%
IC50 (cells): 7.48 µM
IC50 (Cholinesterase): 39.2 µM
viability at 5 µM (PC-12 [2]): 43.2%
viability at 24 h, 50 µM [3]: 99.5%
viability at 20 µM (PC-12 [4]): 53.5%

Structure (SMILES): O=C(CNc1ccc(C(F)(F)F)cc1)Nc1ccc(-c2nc(-c3ccnc(Nc4ccc(OC(F)(F)F)cc4)c3)no2)cc1
IC50 (Acetylcholinesterase): 46.5 µM
viability at 24 h, 25 µM [1]: 99.9%
IC50 (cells): 1.61 µM
IC50 (Cholinesterase): 1.88 µM
viability at 5 µM (PC-12 [2]): 55.8%
viability at 24 h, 50 µM [3]: 99.7%
viability at 20 µM (PC-12 [4]): 61.7%

Structure (SMILES): O=C(CNc1ccccc1)Nc1ccc(-c2nc(-c3ccnc(Nc4ccc(OC(F)(F)F)cc4)c3)no2)cc1
IC50 (Acetylcholinesterase): > 50 µM
viability at 24 h, 25 µM [1]: 99.8%
IC50 (cells): 0.42 µM
IC50 (Cholinesterase): 14.1 µM
viability at 5 µM (PC-12 [2]): 46.9%
Ratio IC50 [5]: 26
viability at 24 h, 50 µM [3]: 99.4%
viability at 20 µM (PC-12 [4]): 58.4%

Structure (SMILES): CCCNCC(=O)Nc1ccc(-c2nc(-c3ccnc(Nc4ccc(OC(F)(F)F)cc4)c3)no2)cc1
IC50 (Acetylcholinesterase): > 50 µM
viability at 24 h, 25 µM [1]: 99.6%
IC50 (cells): 7.82 µM
IC50 (Cholinesterase): 23.3 µM
viability at 5 µM (PC-12 [2]): 41.4%
viability at 24 h, 50 µM [3]: 99.5%
viability at 20 µM (PC-12 [4]): 52.8%

IC50 (cells): 11 µM
Structure (SMILES): Oc1ccc(/C=C/c2cc(O)cc(O)c2)cc1 [RESVERATROL]

Structure (SMILES): O=C(CNc1ccc(Br)cc1)Nc1ccc(-c2nc(-c3ccnc(Nc4ccc(OC(F)(F)F)cc4)c3)no2)cc1
IC50 (Acetylcholinesterase): > 50 µM
viability at 24 h, 25 µM [1]: 99.7%
IC50 (cells): 4.22 µM
IC50 (Cholinesterase): 10.5 µM
viability at 5 µM (PC-12 [2]): 37.8%
viability at 24 h, 50 µM [3]: 99.1%
viability at 20 µM (PC-12 [4]): 46.5%

Structure (SMILES): O=C(CNc1ccc(Cl)cc1)Nc1ccc(-c2nc(-c3ccnc(Nc4ccc(OC(F)(F)F)cc4)c3)no2)cc1
IC50 (Acetylcholinesterase): 45.2 µM
viability at 24 h, 25 µM [1]: 98.8%
IC50 (cells): 2.58 µM
IC50 (Cholinesterase): 7.39 µM
viability at 5 µM (PC-12 [2]): 43.6%
viability at 24 h, 50 µM [3]: 98.2%
viability at 20 µM (PC-12 [4]): 61.6%

Structure (SMILES): CCCCNCC(=O)Nc1ccc(-c2nc(-c3ccnc(Nc4ccc(OC(F)(F)F)cc4)c3)no2)cc1
IC50 (Acetylcholinesterase): > 50 µM
viability at 24 h, 25 µM [1]: 99.9%
IC50 (cells): 8.24 µM
IC50 (Cholinesterase): 15.7 µM
viability at 5 µM (PC-12 [2]): 40%
viability at 24 h, 50 µM [3]: 98.9%
viability at 20 µM (PC-12 [4]): 44.4%

Structure (SMILES): O=C(CNc1ccc(F)c(F)c1)Nc1ccc(-c2nc(-c3ccnc(Nc4ccc(OC(F)(F)F)cc4)c3)no2)cc1
IC50 (Acetylcholinesterase): > 50 µM
viability at 24 h, 25 µM [1]: 99.4%
IC50 (cells): 4.8 µM
IC50 (Cholinesterase): 9.88 µM
viability at 5 µM (PC-12 [2]): 35.7%
viability at 24 h, 50 µM [3]: 97.3%
viability at 20 µM (PC-12 [4]): 45.8%

Structure (SMILES): COc1cccc(NCC(=O)Nc2ccc(-c3nc(-c4ccnc(Nc5ccc(OC(F)(F)F)cc5)c4)no3)cc2)c1
IC50 (Acetylcholinesterase): > 50 µM
viability at 24 h, 25 µM [1]: 99.5%
IC50 (cells): 13.2 µM
IC50 (Cholinesterase): 33.5 µM
viability at 5 µM (PC-12 [2]): 30.7%
viability at 24 h, 50 µM [3]: 98.3%
viability at 20 µM (PC-12 [4]): 33.7%

Structure (SMILES): O=c1c(O)c(-c2ccc(O)c(O)c2)oc2cc(O)cc(O)c12 [QUERCETIN]
viability at 24 h, 25 µM [1]: 99.6%
viability at 5 µM (PC-12 [2]): 48.2%
viability at 24 h, 50 µM [3]: 99.5%
viability at 20 µM (PC-12 [4]): 59.4%

Structure (SMILES): O=C(CNc1cccc(F)c1)Nc1ccc(-c2nc(-c3ccnc(Nc4ccc(OC(F)(F)F)cc4)c3)no2)cc1
IC50 (Acetylcholinesterase): > 50 µM
viability at 24 h, 25 µM [1]: 99.6%
IC50 (cells): 3.16 µM
IC50 (Cholinesterase): 5.51 µM
viability at 5 µM (PC-12 [2]): 39.4%
viability at 24 h, 50 µM [3]: 99.3%
viability at 20 µM (PC-12 [4]): 58.5%

Structure (SMILES): Cc1ccccc1NCC(=O)Nc1ccc(-c2nc(-c3ccnc(Nc4ccc(OC(F)(F)F)cc4)c3)no2)cc1
IC50 (Acetylcholinesterase): > 50 µM
viability at 24 h, 25 µM [1]: 99.6%
IC50 (cells): 8.74 µM
IC50 (Cholinesterase): 25.8 µM
viability at 5 µM (PC-12 [2]): 45.2%
viability at 24 h, 50 µM [3]: 99.3%
viability at 20 µM (PC-12 [4]): 55.2%

Structure (SMILES): O=C(CNCc1ccc(F)cc1)Nc1ccc(-c2nc(-c3ccnc(Nc4ccc(OC(F)(F)F)cc4)c3)no2)cc1
IC50 (Acetylcholinesterase): > 50 µM
viability at 24 h, 25 µM [1]: 100%
IC50 (cells): 9.23 µM
IC50 (Cholinesterase): 37.8 µM
viability at 5 µM (PC-12 [2]): 41.9%
viability at 24 h, 50 µM [3]: 99.8%
viability at 20 µM (PC-12 [4]): 48.6%

Structure (SMILES): O=C(CNCc1ccc(C(F)(F)F)cc1)Nc1ccc(-c2nc(-c3ccnc(Nc4ccc(OC(F)(F)F)cc4)c3)no2)cc1
IC50 (Acetylcholinesterase): > 50 µM
viability at 24 h, 25 µM [1]: 99.7%
IC50 (cells): 8.48 µM
IC50 (Cholinesterase): 30.9 µM
viability at 5 µM (PC-12 [2]): 25.7%
viability at 24 h, 50 µM [3]: 99.4%
viability at 20 µM (PC-12 [4]): 33%

Structure (SMILES): O=C(CNc1cccc(Cl)c1)Nc1ccc(-c2nc(-c3ccnc(Nc4ccc(OC(F)(F)F)cc4)c3)no2)cc1
IC50 (Acetylcholinesterase): > 50 µM
viability at 24 h, 25 µM [1]: 99.4%
IC50 (cells): 3.66 µM
IC50 (Cholinesterase): 12.8 µM
viability at 5 µM (PC-12 [2]): 34.1%
viability at 24 h, 50 µM [3]: 98.7%
viability at 20 µM (PC-12 [4]): 37.7%

Structure (SMILES): O=C(CNCc1cccc(Cl)c1)Nc1ccc(-c2nc(-c3ccnc(Nc4ccc(OC(F)(F)F)cc4)c3)no2)cc1
IC50 (Acetylcholinesterase): > 50 µM
viability at 24 h, 25 µM [1]: 99.8%
IC50 (cells): 14.6 µM
IC50 (Cholinesterase): > 50 µM
viability at 5 µM (PC-12 [2]): 33.4%
viability at 24 h, 50 µM [3]: 99.7%
viability at 20 µM (PC-12 [4]): 43.9%

Structure (SMILES): Cc1ccc(NCC(=O)Nc2ccc(-c3nc(-c4ccnc(Nc5ccc(OC(F)(F)F)cc5)c4)no3)cc2)cc1
IC50 (Acetylcholinesterase): > 50 µM
viability at 24 h, 25 µM [1]: 100%
IC50 (cells): 5.97 µM
IC50 (Cholinesterase): 19.3 µM
viability at 5 µM (PC-12 [2]): 37.9%
viability at 24 h, 50 µM [3]: 99.8%
viability at 20 µM (PC-12 [4]): 49.1%

Structure (SMILES): O=C(CNCc1cccc(F)c1)Nc1ccc(-c2nc(-c3ccnc(Nc4ccc(OC(F)(F)F)cc4)c3)no2)cc1
IC50 (Acetylcholinesterase): > 50 µM
viability at 24 h, 25 µM [1]: 98.4%
IC50 (cells): 13 µM
IC50 (Cholinesterase): 45.3 µM
viability at 5 µM (PC-12 [2]): 28.1%
viability at 24 h, 50 µM [3]: 96.7%
viability at 20 µM (PC-12 [4]): 36.2%

Structure (SMILES): O=C(CNC1CCCC1)Nc1ccc(-c2nc(-c3ccnc(Nc4ccc(OC(F)(F)F)cc4)c3)no2)cc1
IC50 (Acetylcholinesterase): > 50 µM
viability at 24 h, 25 µM [1]: 99.5%
IC50 (cells): 2.66 µM
IC50 (Cholinesterase): 16.6 µM
viability at 5 µM (PC-12 [2]): 44.1%
viability at 24 h, 50 µM [3]: 98.2%
viability at 20 µM (PC-12 [4]): 57%

Structure (SMILES): COc1ccc(NCC(=O)Nc2ccc(-c3nc(-c4ccnc(Nc5ccc(OC(F)(F)F)cc5)c4)no3)cc2)cc1
IC50 (Acetylcholinesterase): > 50 µM
viability at 24 h, 25 µM [1]: 99%
IC50 (cells): 6.95 µM
IC50 (Cholinesterase): > 50 µM
viability at 5 µM (PC-12 [2]): 33.2%
viability at 24 h, 50 µM [3]: 98.7%
viability at 20 µM (PC-12 [4]): 44.6%

Structure (SMILES): Cc1cccc(NCC(=O)Nc2ccc(-c3nc(-c4ccnc(Nc5ccc(OC(F)(F)F)cc5)c4)no3)cc2)c1
IC50 (Acetylcholinesterase): > 50 µM
viability at 24 h, 25 µM [1]: 99.6%
IC50 (cells): 7.29 µM
IC50 (Cholinesterase): 20.2 µM
viability at 5 µM (PC-12 [2]): 50.1%
viability at 24 h, 50 µM [3]: 99.2%
viability at 20 µM (PC-12 [4]): 50.7%

Structure (SMILES): O=C(CNC1CC1)Nc1ccc(-c2nc(-c3ccnc(Nc4ccc(OC(F)(F)F)cc4)c3)no2)cc1
IC50 (Acetylcholinesterase): 48.9 µM
viability at 24 h, 25 µM [1]: 100%
IC50 (cells): 5.67 µM
IC50 (Cholinesterase): 24.3 µM
viability at 5 µM (PC-12 [2]): 33.5%
viability at 24 h, 50 µM [3]: 99.7%
viability at 20 µM (PC-12 [4]): 46.7%

Structure (SMILES): CC(C)CNCC(=O)Nc1ccc(-c2nc(-c3ccnc(Nc4ccc(OC(F)(F)F)cc4)c3)no2)cc1
IC50 (Acetylcholinesterase): > 50 µM
viability at 24 h, 25 µM [1]: 99.9%
IC50 (cells): 3.88 µM
IC50 (Cholinesterase): 29.4 µM
viability at 5 µM (PC-12 [2]): 34.1%
viability at 24 h, 50 µM [3]: 99.6%
viability at 20 µM (PC-12 [4]): 43.9%
